Laboratory results from ChEMBL document CHEMBL3997794, “Design and synthesis of benzodiazepine analogs as isoform-selective human lysine deacetylase inhibitors” (Eur J Med Chem, 2017).

Columns and labels:
Histone deacetylase 8 = molecular target: T1, Histone deacetylase 8 (Homo sapiens, UniProt Q9BY41); experiment: Inhibition of human KDAC8 after 60 mins by fluorescence assay
T1 sequence (Q9BY41 whole entry): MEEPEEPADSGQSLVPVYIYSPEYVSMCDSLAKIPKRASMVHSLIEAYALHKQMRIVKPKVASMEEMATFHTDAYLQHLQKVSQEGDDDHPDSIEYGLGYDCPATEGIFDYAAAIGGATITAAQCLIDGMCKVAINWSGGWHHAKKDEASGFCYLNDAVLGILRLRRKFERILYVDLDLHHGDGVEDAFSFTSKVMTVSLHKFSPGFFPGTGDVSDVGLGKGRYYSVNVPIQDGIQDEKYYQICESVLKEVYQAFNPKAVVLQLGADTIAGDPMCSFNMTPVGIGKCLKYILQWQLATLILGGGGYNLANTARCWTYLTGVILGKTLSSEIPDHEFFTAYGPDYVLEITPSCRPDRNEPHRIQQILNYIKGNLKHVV

[1] = molecular target: T2, Histone deacetylase 8 (Homo sapiens) (UniProt Q9BY41); experiment: Inhibition of human KDAC8 at 30 uM after 60 mins by fluorescence assay relative to control
T2 sequence (whole entry): T1 sequence (Q9BY41 whole entry)

Histone deacetylase 1 [2] = molecular target: T3, Histone deacetylase 1 (Homo sapiens, UniProt Q13547); experiment: Inhibition of human KDAC1 using substrate A after 60 mins by fluorescence assay
T3 sequence (Q13547 whole entry): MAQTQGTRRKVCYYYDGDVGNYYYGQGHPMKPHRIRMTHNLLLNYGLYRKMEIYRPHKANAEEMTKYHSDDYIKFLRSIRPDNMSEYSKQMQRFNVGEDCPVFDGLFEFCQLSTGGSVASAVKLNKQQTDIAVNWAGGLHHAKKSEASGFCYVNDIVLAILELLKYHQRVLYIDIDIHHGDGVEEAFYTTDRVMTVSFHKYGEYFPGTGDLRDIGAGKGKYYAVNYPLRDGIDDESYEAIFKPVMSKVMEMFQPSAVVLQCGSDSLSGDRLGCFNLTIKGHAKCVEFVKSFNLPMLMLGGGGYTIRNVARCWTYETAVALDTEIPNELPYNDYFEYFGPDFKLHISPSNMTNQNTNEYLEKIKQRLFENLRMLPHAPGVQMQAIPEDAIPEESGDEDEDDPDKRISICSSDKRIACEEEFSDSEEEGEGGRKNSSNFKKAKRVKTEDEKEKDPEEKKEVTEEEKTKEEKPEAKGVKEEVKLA

Histone deacetylase 3 [3] = molecular target: T4, Histone deacetylase 3 (Homo sapiens, UniProt O15379); experiment: Inhibition of human KDAC3 at 30 uM using FITC-labeled p53 acetylated peptide as substrate after 60 mins by fluorescence assay relative to control
T4 sequence (O15379 whole entry): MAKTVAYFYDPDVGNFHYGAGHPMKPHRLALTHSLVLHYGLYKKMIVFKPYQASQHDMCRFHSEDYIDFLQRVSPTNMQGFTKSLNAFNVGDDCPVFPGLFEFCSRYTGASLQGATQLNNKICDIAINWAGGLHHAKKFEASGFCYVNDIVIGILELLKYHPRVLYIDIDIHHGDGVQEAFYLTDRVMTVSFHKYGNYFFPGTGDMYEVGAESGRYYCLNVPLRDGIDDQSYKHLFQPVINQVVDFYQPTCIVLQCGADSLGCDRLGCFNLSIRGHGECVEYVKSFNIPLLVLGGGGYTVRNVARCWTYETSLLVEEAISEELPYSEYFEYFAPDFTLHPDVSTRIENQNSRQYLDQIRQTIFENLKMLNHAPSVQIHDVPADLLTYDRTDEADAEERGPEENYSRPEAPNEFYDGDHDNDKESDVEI

Histone deacetylase 3 [4] = molecular target: T4, Histone deacetylase 3; experiment: Inhibition of human KDAC3 using FITC-labeled p53 acetylated peptide as substrate after 60 mins by fluorescence assay
[5] = molecular target: T5, Protein deacetylase HDAC6 (Homo sapiens, UniProt Q9UBN7); experiment: Inhibition of human KDAC6 using FITC-labeled histone H4 acetylated peptide as substrate after 60 mins by fluorescence assay
T5 sequence (Q9UBN7 whole entry): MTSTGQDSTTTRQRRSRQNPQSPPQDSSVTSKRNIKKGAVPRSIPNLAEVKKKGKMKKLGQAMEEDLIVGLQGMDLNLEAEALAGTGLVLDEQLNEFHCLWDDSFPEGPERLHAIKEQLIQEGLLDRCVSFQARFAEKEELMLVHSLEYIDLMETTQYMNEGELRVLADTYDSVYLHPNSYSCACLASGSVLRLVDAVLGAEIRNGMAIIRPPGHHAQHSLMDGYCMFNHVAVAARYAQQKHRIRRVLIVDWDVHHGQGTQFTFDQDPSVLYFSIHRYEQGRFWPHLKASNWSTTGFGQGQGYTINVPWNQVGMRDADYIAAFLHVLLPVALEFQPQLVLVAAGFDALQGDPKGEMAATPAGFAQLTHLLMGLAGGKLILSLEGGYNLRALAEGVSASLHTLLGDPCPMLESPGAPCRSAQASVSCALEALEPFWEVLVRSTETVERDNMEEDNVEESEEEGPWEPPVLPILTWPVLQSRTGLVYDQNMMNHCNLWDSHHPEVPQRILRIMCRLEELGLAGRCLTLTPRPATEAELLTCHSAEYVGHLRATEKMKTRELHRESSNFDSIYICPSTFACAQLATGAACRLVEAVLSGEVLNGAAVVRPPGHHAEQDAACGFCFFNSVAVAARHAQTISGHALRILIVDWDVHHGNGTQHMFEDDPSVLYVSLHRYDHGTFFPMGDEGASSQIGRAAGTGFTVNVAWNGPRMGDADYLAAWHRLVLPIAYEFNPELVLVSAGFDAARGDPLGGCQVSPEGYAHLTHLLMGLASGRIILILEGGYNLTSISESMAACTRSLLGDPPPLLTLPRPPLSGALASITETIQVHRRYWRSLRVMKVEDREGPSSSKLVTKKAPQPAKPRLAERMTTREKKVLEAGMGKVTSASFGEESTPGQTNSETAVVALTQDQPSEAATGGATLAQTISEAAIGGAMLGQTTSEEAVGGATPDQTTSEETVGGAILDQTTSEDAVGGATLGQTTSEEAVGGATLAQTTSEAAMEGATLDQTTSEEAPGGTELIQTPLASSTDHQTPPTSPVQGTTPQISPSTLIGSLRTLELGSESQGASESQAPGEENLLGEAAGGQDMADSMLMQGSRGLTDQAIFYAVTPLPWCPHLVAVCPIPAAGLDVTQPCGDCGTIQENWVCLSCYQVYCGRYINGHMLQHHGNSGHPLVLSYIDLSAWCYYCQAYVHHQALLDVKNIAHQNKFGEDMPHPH

Histone deacetylase 1 [6] = molecular target: T3, Histone deacetylase 1; experiment: Inhibition of human KDAC1 at 30 uM using substrate A after 60 mins by fluorescence assay relative to control
[7] = molecular target: T6, Protein deacetylase HDAC6 (Homo sapiens) (UniProt Q9UBN7); settings: at 30 µM
T6 sequence (whole entry): T5 sequence (Q9UBN7 whole entry)
Description: Inhibition of human KDAC6 at 30 uM using FITC-labeled histone H4 acetylated peptide as substrate after 60 mins by fluorescence assay relative to control

| SMILES | IC50 (Histone deacetylase 8) | inhibition [1] | IC50 (Histone deacetylase 1 [2]) | inhibition (Histone deacetylase 3 [3]) | IC50 (Histone deacetylase 3 [4]) | IC50 [5] | inhibition (Histone deacetylase 1 [6]) | inhibition [7] |
| --- | --- | --- | --- | --- | --- | --- | --- | --- |
| CC(C)(C)SC[C@H]1N=C(c2ccccc2)c2ccccc2N(CCCCC(=O)NO)C1=O | > 30 µM | 44.6% | 7.99 µM | 98.8% | 0.75 µM | 5.37 µM | 79.9% | 88% |
| CC[C@H](C)[C@@H]1N=C(c2ccccc2)c2ccccc2N(CCCCC(=O)OC)C1=O | > 30 µM | 2.38% | > 30 µM | 0% | > 30 µM | > 30 µM | 2.83% | 0% |
| CC(C)(C)OC(=O)C[C@@H]1N=C(c2ccccc2)c2ccccc2NC1=O | > 30 µM | 5.34% | > 30 µM | 3.95% | > 30 µM | > 30 µM | 9.6% | 0% |
| COC(=O)CCCCN1C(=O)[C@H](C)N=C(c2ccccc2)c2ccccc21 | > 30 µM | 12.7% | > 30 µM | 4.62% | > 30 µM | > 30 µM | 9.4% | 8.84% |
| C[C@@H]1N=C(c2ccccc2)c2ccccc2N(CCCCC(=O)NO)C1=O | 24.7 µM | 53.8% | 12.7 µM | 93.8% | 1.8 µM | 2.95 µM | 68.4% | 92.7% |
| C[C@@H](OCc1ccccc1)[C@@H]1N=C(c2ccccc2)c2ccccc2N(CCCCC(=O)NO)C1=O | 29.5 µM | 50.1% | 4.55 µM | 97.2% | 0.91 µM | 2.05 µM | 82.4% | 98.1% |
| COC(=O)CCCCN1C(=O)[C@H](CC(=O)OC(C)(C)C)N=C(c2ccccc2)c2ccccc21 | > 30 µM | 0% | > 30 µM | 0% | > 30 µM | > 30 µM | 3.65% | 0% |
| CC(C)C[C@@H]1N=C(c2ccccc2)c2ccccc2N(CCCCC(=O)O)C1=O | > 30 µM | 7% | > 30 µM | 0% | > 30 µM | > 30 µM | 3.1% | 0% |
| O=C(CCCCN1C(=O)[C@H](Cc2cnc[nH]2)N=C(c2ccccc2)c2ccccc21)NO | > 30 µM | 42.4% | 13.9 µM | 99% | 1.32 µM | 4.98 µM | 61.4% | 84.6% |
| COC(=O)CCCCN1C(=O)[C@H](CC(C)C)N=C(c2ccccc2)c2ccccc21 | > 30 µM | 7.63% | > 30 µM | 0% | > 30 µM | > 30 µM | 8.85% | 0% |
| CC(C)[C@@H]1N=C(c2ccccc2)c2ccccc2N(CCCCC(=O)NO)C1=O | 19.8 µM | 59.4% | 5.27 µM | 97% | 0.6 µM | 1.35 µM | 81.4% | 95.5% |
| COC(=O)CCCCN1C(=O)[C@H](Cc2ccccc2)N=C(c2ccccc2)c2ccccc21 | > 30 µM | 0% | > 30 µM | 1.85% | > 30 µM | > 30 µM | 1.72% | 6.49% |
| O=C(O)CCCCN1C(=O)[C@H](Cc2ccccc2)N=C(c2ccccc2)c2ccccc21 | > 30 µM | 6.22% | > 30 µM | 0.91% | > 30 µM | > 30 µM | 11.9% | 0% |
| CC(C)(C)OC(=O)C[C@@H]1N=C(c2ccccc2)c2ccccc2N(CCCCC(=O)NO)C1=O | 22.4 µM | 62.3% | 15.7 µM | 91.5% | 4.15 µM | 6.43 µM | 64.1% | 80.6% |
| CC(C)C[C@@H]1N=C(c2ccccc2)c2ccccc2NC1=O | > 30 µM | 0% | > 30 µM | 0% | > 30 µM | > 30 µM | 2.85% | 5.48% |
| NC(=O)CC[C@@H]1N=C(c2ccccc2)c2ccccc2N(CCCCC(=O)NO)C1=O | > 30 µM | 30.8% | 13.9 µM | 94% | 1.94 µM | 1.29 µM | 64.5% | 96% |
| NC(=O)C[C@@H]1N=C(c2ccccc2)c2ccccc2N(CCCCC(=O)NO)C1=O | > 30 µM | 26.2% | 22.5 µM | 90.9% | 3.1 µM | 5.38 µM | 57.6% | 82.2% |
| O=C(CCCCN1C(=O)[C@@H](CS)N=C(c2ccccc2)c2ccccc21)NO | 8.11 µM | 81.2% | 0.46 µM | 100% | 0.18 µM | 0.58 µM | 97.3% | 96.9% |
| CSCC[C@@H]1N=C(c2ccccc2)c2ccccc2N(CCCCC(=O)O)C1=O | > 30 µM | 2.75% | > 30 µM | 0% | > 30 µM | > 30 µM | 4.46% | 0% |
| CC(C)(C)Oc1ccc(C[C@@H]2N=C(c3ccccc3)c3ccccc3N(CCCCC(=O)O)C2=O)cc1 | > 30 µM | 2.15% | > 30 µM | 1.05% | > 30 µM | > 30 µM | 4.65% | 0.28% |
| CC(C)[C@@H]1N=C(c2ccccc2)c2ccccc2NC1=O | > 30 µM | 0% | > 30 µM | 0% | > 30 µM | > 30 µM | 0% | 3.25% |
| O=C(CCCCN1C(=O)[C@H](Cc2ccccc2)N=C(c2ccccc2)c2ccccc21)NO | 12.7 µM | 68.6% | 8.51 µM | 97% | 0.49 µM | 1.98 µM | 75% | 95.1% |
| CC(C)(C)OC(=O)NCCCC[C@@H]1N=C(c2ccccc2)c2ccccc2NC1=O | > 30 µM | 0% | > 30 µM | 0% | > 30 µM | > 30 µM | 2.97% | 0% |
| O=C(CC[C@@H]1N=C(c2ccccc2)c2ccccc2NC1=O)NO | > 30 µM | 43.8% | 16.9 µM | 4.57% | > 30 µM | > 30 µM | 64.4% | 36.5% |
| CSCC[C@@H]1N=C(c2ccccc2)c2ccccc2NC1=O | > 30 µM | 9.07% | > 30 µM | 0% | > 30 µM | > 30 µM | 0% | 2.62% |
